Results as given in US12291504B2 (University of Pittsburgh—Of the Commonwealth System of …, priority 2018, dated 2025).

Tests used:
[1] = biological target: SULT1A3 spin-labeled at Cys 116 (Homo sapiens, UniProt P0DMM9, Q116C); test: Initial-rate parameters, spin-labeled SULT1A3 mutant 116
Description: Covalent Tagging of SULT1A3 Cys Constructs. Labeling of the SULT1A3 Cys constructs was performed as described previously (17,18,21). Briefly, 3-maleimido-PROXYL (spin label) or N-cyclohexylmaleimide (diamagnetic control) was added to an enzyme containing solution at 20-fold excess over reactive Cys. Unreacted Cys was monitored using DNTB (17,18,21); reactions were considered complete when >98% of the Cys was labeled. Reaction conditions: SULT1A3 (50 μM, monomer), 3-maleimido-PROXYL or N-cyclohexylmaleimide (1.0 mM), PAP (0.50 mM), KPO4 (50 mM), pH 7.5, 4±2° C. To prepare samples for NMR, reaction mixtures were dialyzed three times against 40 volumes of PAP (0.50 mM), KPO4 (50 mM), pD 7.4, D2O (>95%), 4±2° C.
Initial-Rate Studies. Initial-rate parameters for the labeled or mutant SULT1A3 constructs were determined using a previously described 1-HP assay (25). […] Reactions were monitored via fluorescence change associated with the conversion of 1-HP to 1-HP-S (λex=325 nm, λem=370 nm). Keq for the 1-HP sulfonation reaction is −250. Given the reaction conditions outlined above, ≥99% of 1-HP is converted to 1-HP-S, and ˜0.4% of PAPS is converted to PAP at equilibrium. […] Reaction progress curves were analyzed to obtain initial-rate parameters as described previously (26,27).
Inhibition studies. Inhibition parameters were determined under conditions identical to those described above (see, Initial-Rate Studies) except that [1-HP] was increased to 5.0 μM (˜61×Km) and inhibitor concentration was varied between 0.20-20×Ki. Ki was obtained using a least-squares fit to the following partial inhibition equation (25,28): v=kcat·(Ki+(1/kcat inh)·[I])/(Ki+[I]), where kcat inh is enzyme turnover at saturating substrates and allosteric inhibitor.

[2] = biological target: Rhesus Macaque (1A3) (Macaca mulatta, UniProt A0A5F7ZQH3); test: Inhibition of SULT1A3 homologues in different species: Rhesus Macaque; type: biochemical
Description: (§1) Compounds 12, 23 and 25 were also tested for Inhibition of SULT1A3 in different species.
(§2) Inhibition of SULT1A3 Homologues in Different Species. SULT1A3 is only expressed in humans and higher primates. SULT1D1 is the isoform expressed in dogs and rodents that sulfonates neurotransmitters and is most similar to SULT1A3. Three synthesized allosteres (12, 23, and 25) were tested against both 1A3 and 1D1 from different species in order to explore testing in animal models. […] Mice have been engineered such that their SULT1A1/2 enzymes have been knocked out and replaced with the human versions of those isoforms.

[3] = biological target: SULT1A3 (Homo sapiens, UniProt P0DMM9); test: Dopamine sulfonation by SULT1A3-expressing HME cells; type: cell-based; settings: dopamine 100 μM, 24 hours, best-fit titration curve, read-out: EC50, inhibition of dopamine sulfonation
Chain of SULT1A3 (P0DMM9 whole entry): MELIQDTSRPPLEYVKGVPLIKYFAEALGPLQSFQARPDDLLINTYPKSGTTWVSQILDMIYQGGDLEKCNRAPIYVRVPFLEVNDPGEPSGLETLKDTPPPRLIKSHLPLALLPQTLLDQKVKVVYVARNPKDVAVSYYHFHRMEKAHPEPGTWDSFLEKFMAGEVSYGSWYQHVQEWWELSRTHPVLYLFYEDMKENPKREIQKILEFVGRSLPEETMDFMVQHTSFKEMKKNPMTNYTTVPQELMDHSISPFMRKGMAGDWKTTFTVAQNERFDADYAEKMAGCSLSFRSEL
Description: Cells were incubated with 100 μM dopamine and incubation media was sampled for dopamine and dopamine sulfate at the indicated time intervals. The dopamine and dopamine sulfate levels in the SULT1A3 (+) strain are shown as red and blue dots, respectively. Only dopamine (green dots) was detected using the SULT1A3 (−) strain.
HME cells were incubated with dopamine (100 μM) and Compound 12 (at the indicated concentrations) for 24 hours at which time the dopamine (red dots) and dopamine sulfate (blue dots) levels were determined. […] The chromatography was performed using a PFP-HPLC column. […] Further, the data in Table A reveal that Compound 12 is highly specific for the SULT1A3 isoform.
HME cells expressing SULT1A3 were incubated for 24 hours with dopamine (100 μM) and Compound 23 (at the indicated concentrations) at which time the dopamine (red dots) and dopamine sulfate (blue dots) concentrations were determined using the methods associated with FIG. 10B.

[4] = biological target: T1, SULT1E1 (Homo sapiens, UniProt P49888); test: SULT1E1 inhibition test; type: biochemical; settings: at 50 uM
T1 sequence (P49888 1-294): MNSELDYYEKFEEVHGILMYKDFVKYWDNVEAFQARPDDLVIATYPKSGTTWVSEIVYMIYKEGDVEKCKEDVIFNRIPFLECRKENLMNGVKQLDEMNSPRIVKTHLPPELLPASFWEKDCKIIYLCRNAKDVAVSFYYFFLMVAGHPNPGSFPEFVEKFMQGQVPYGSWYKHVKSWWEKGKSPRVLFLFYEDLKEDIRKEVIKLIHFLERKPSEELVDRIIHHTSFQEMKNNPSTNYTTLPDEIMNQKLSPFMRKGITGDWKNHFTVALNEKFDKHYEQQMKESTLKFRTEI

[5] = biological target: Green Monkey (1A3) (Chlorocebus sabaeus, UniProt Z9LO20H8W3); test: Inhibition of SULT1A3 homologues in different species: Green Monkey; type: biochemical
Chain of Green Monkey (1A3) (Z9LO20H8W3 1-295): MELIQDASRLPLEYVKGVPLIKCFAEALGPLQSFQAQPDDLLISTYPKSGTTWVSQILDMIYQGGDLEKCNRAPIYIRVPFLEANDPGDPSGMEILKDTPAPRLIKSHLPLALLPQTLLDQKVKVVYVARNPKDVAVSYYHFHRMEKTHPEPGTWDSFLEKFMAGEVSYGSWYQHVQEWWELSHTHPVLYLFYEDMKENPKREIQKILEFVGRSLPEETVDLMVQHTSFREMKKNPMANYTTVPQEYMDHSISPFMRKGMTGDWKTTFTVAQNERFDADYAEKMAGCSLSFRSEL
Description: as §1, §2

Chain of Rhesus Macaque (1A3) (A0A5F7ZQH3 1-295): as the sequence (Z9LO20H8W3 1-295) above, with A7T, V15M, C23Y, R230K, Y247F, A278E counted along it
Chain of SULT1A3 spin-labeled at Cys 116 (P0DMM9 whole entry Q116C): as the sequence (P0DMM9 whole entry) above, with Q116C counted along it

| Ki [1] [nM] | Rhesus Macaque (1A3) % inh [2] | Ki ([2]; parentheses one standard error) [nM] | EC50 [3] [nM] | inhibition of SULT1E1 [4] | Green Monkey (1A3) % inh [5] | Ki ([5]; parentheses one standard error) [nM] | SMILES |
| --- | --- | --- | --- | --- | --- | --- | --- |
| 37 |  |  |  |  |  |  | CC(C)Cc1ccc2cc(CO)ccc2n1 [Compound 8, (2-Isobutylquinolin-6-yl)methanol] |
|  | 97 (2) % | 38 | 250 ± 87 | no inhibition was detected | 71 (3) % | 170 | CC(C)Cc1ccc2cc(CCC(N)=O)ccc2n1 [Compound 12] |
